Reference: patent US10149470B2, “Methods and compositions for vein harvest and autografting” (Vanderbilt University, priority 2009, dated 2018)
“Also recorded” adds a separate entry of the source.

Legend:
Format in all cases: cell-based
human saphenous vein [1] = assay: KCl-induced contraction of human saphenous vein rings treated with erioglaucine; conditions: FIGS. 11A-B
Protocol: Effect of erioglaucine on human saphenous vein was determined using de-identified discarded segments of human saphenous vein from patients undergoing coronary artery bypass or peripheral vascular bypass surgery (n=4). The veins were stored in a saline solution until the end of the surgical procedure at which time they were placed in cold transplant harvest buffer (100 mM potassium lactobionate, 25 mM KH2PO4, 5 mM MgSO4, 30 mM raffinose, 5 mM adenosine, 3 mM glutathione, 1 mM allopurinol, 50 g/L hydroxyethyl starch, pH 7.4). The vessels were tested within 24 hrs of harvest storage in transplant harvest buffer at 4° C. To test the viability, rings 1.0 mm in width were cut from segments of saphenous vein dissected free of fat and connective tissue, treated with either a solution of erioglaucine (FCF, 2.6 mM, in 5% propylene glycol and water) or vehicle and incubated for 30 min at room temperature. The tissues were then stripped of the endothelium and suspended in a muscle bath containing a bicarbonate buffer, gassed with 95% O2/5% CO2 at 37° C. The rings were manually stretched to 4 g of tension, and was maintained at a resting tension of 1 g was obtained and equilibrated for ˜2 hr. […] The rings were contracted with 110 mM KCl (with equimolar replacement of NaCl in bicarbonate buffer), and the force generated was measured. […]

human saphenous vein [2] = assay: BzATP-induced contraction of saphenous vein rings after erioglaucine pretreatment; conditions: erioglaucine 50-200 μM for 30 min, then 100 μM BzATP; FIG. 12
Protocol: Human saphenous vein segments were collected after harvest before surgical manipulation from patients undergoing coronary artery bypass or peripheral vascular bypass surgery and stored in PlasmaLyte. The vessels were tested within 2 hours of harvest. Freshly isolated porcine saphenous vein was collected in cold transplant harvest buffer (100 mM potassium lactobionate, 25 mM KH2PO4, 5 mM MgSO4, 30 mM Raffinose, 5 mM Adenosine, 3 mM Glutathione, 1 mM Allopurinol, 50 g/L Hydroxyethyl starch, pH 7.4). The vessels were tested within 24 hours of harvest. Rings 1.0 mm in width were cut from porcine saphenous veins (FIG. 12A, n=2) and unmanipulated human saphenous vein (FIG. 12B, n=4) dissected free of fat and connective tissue. The rings were then stripped of the endothelium and suspended in a muscle bath containing a bicarbonate buffer, bubbled with 95% O2/5% CO2 at 37° C. The rings were manually stretched to 4 g of tension, and was maintained at a resting tension of 1 g was obtained and equilibrated for ˜2 hr. Force measurements were obtained using a Radnoti Glass Technology (Monrovia, Calif.) force transducer (159901A) interfaced with a Powerlab data acquisition system and Chart software (AD Instruments, Colorado Springs, Colo.). Rings were contracted with 110 mM KCl. […] Force was measured and converted to stress. Response was expressed as % of maximal KCl contraction. […]

human saphenous vein [3] = assay: Intimal thickness of human saphenous vein rings in 14 day organ culture; conditions: 50 μM erioglaucine, 14 days culture, compared to Control; FIG. 13
Protocol: Segments of human saphenous vein were collected prior to preparation of the vein for transplantation into the arterial circulation (unmanipulated, UM) and after surgical preparation (after manipulation, AM) from the same patients in PlasmaLyte and were used within 2 hr of harvest. The segment was cut into ˜1 mm rings and one ring from each group was fixed in formalin (Pre-culture). The other rings were cultured in RPMI medium supplemented with 1% L-glutamine, 1% penicillin/streptomycin and 30% fetal bovine serum at 5% CO2 and 37° C. in the absence (Control) or presence of 50 μM erioglaucine (FCF) for 14 days. After 14 days, the rings were fixed in formalin, sectioned at 5 μm and stained using Verhoff Van Gieson stain. Light micrograph of the rings was captured using an Axiovert 200 and intimal thickness was measured using AxioVision. Data represent % increase of intimal thickness related to basal intimal thickness of the pre-culture ring which was set as 0%. The error bars show the standard error of the mean.

porcine saphenous vein [4] = assay: KCl-induced contraction of porcine saphenous vein after stretch injury, with or without dye
Protocol: Freshly isolated porcine saphenous vein was collected in cold transplant harvest buffer (100 mM potassium lactobionate, 25 mM KH2PO4, 5 mM MgSO4, 30 mM raffinose, 5 mM adenosine, 3 mM glutathione, 1 mM allopurinol, 50 g/L hydroxyethyl starch, pH 7.4). The vessels were tested within 24 hours of harvest and storage in transplant harvest buffer at 4° C. The vein was dissected free of fat and connective tissue and cut into 2 cm long segments. The segments were stretched to twice their resting length (stretched; n=7) or not manipulated (control; n=12). After stretching, the segments from both groups were further divided. A solution of erioglaucine (FCF, 2.6 mM, in 5% propylene glycol and water) or vehicle was then applied with a cotton swab in a longitudinal line to the untreated (FCF; n=8) or the stretched (Stretched+FCF; n=3) vein segments. The segments were incubated at room temperature for 15 min in Plasmalyte and then cut into rings. The rings were suspended in a muscle bath containing a bicarbonate buffer (120 mM NaCl, 4.7 mM KCl, 1.0 mM MgSO4, 1.0 mM NaH2PO4, 10 mM glucose, 1.5 mM CaCl2, and 25 mM […], pH 7.4), bubbled with 95% O2/5% CO2 at 37° C. The rings were manually stretched to 4 g of tension, and maintained at a resting tension of 1 g and equilibrated for ˜2 hr.
Rings from stretched segments were either incubated with 50 μM Allura Red (+Red) or 50 μM of erioglaucine (+FCF) for 30 min. The rings were then allowed to equilibrate in the bicarbonate buffer for before contracting with 110 mM KCl. Force generated was converted to stress (10^5 N/m^2). Data represent relative contractile response to Control rings which was set as 100%.

porcine saphenous vein [5] = assay: Intimal thickening of distended porcine saphenous vein rings in 14 day organ culture; conditions: 50 μM dye, 14 days culture, distended to >300 mm Hg, compared to Distended-Control; FIG. 14
Protocol: Fresh porcine saphenous vein was harvested by a no touch method under sterile conditions and stored in cold transplant harvest buffer (100 mM potassium lactobionate, 25 mM KH2PO4, 5 mM MgSO4, 30 mM Raffinose, 5 mM Adenosine, 3 mM Glutathione, 1 mM Allopurinol, 50 g/L Hydroxyethyl starch, pH 7.4). The vessels were used within 24 hr of harvest. The veins were divided into three segments that were left untreated (Unmanipulated, n=7), distended (Distended, n=8) to >300 mm Hg, or distended in the presence of the pressure relief valve (Pop Off, n=7). Each segment was then cut into ˜1 mm rings and one ring from each condition was immediately fixed in formalin (Pre-culture). The other rings were cultured in RPMI medium supplemented with 1% L-glutamine, penicillin/streptomycin and 30% Fetal bovine serum at 5% CO2 and 37° C. in the absence (Control) or presence of either 50 μM erioglaucine (FCF), 50 μM brilliant blue G (BBG) or 50 μM Allura Red (Red) for 14 days. After 14 days, the rings were fixed in formalin, sectioned at 5 μm and stained using Verhoff Van Gieson stain. Light micrograph of the rings was captured using a Axiovert 200 and intimal thickness was measured using AxioVision.

## CCN(Cc1cccc(S(=O)(=O)[O-])c1)c1ccc(C(=C2C=CC(=[N+](CC)Cc3cccc(S(=O)(=O)[O-])c3)C=C2)c2ccccc2S(=O)(=O)[O-])cc1.[Na+].[Na+] [erioglaucine]
Human saphenous vein [1]
  smooth muscle viability (in words): restores smooth muscle viability
Human saphenous vein [2]
  BzATP induced contraction: significantly inhibited BzATP induced contraction; also recorded: blocks BzATP-induced contraction
Human saphenous vein [3]
  development of intimal thickness: inhibited the development of intimal thickness; also recorded: reduces intimal thickness
Porcine saphenous vein [4]; 50 μM dye for 30 min on rings from stretched segments, FIG. 10
  restoration of functional viability (contractile response to KCl) after stretch injury: significantly restored contractile response
Porcine saphenous vein [4]; FIG. 9
  restoration of functional viability after stretch injury (in words): restores functional viability
Porcine saphenous vein [5]
  distension induced increases in intimal thickening: inhibited distension induced increases in intimal thickening; also recorded: reduces intimal layer thickening
